Measurements published in patent publication US20240148888A1, “INTERCELLULAR ADHESION MOLECULE 1 (ICAM1) ANTIBODY DRUG CONJUGATE AND USES THEREOF” (priority 2021, published 2024).
Each block holds one molecule with its values, some of them ahead of it.

Assays:
[1] = system: MDA-MB-436 tumors; assay: In vivo efficacy, orthotopic TNBC model, standard setting; conditions: 5 mg/kg equivalent dosage
Experimental: For the in vivo efficacy studies, orthotopic TNBC tumors (MDA-MB-436 or MDA-MB-231) were established in 6-8 weeks old female nude mice as described above. Tumors were grown to reach 100 mm^3 for standard setting treatment or 500 mm^3 for late-stage treatment. […] Tumor growth was monitored weekly using caliper. At the endpoint, animals were euthanized with CO2 and orthotopic tumors were excised to measure their mass.

[2] = target: intercellular adhesion molecule 1 (ICAM1) from Homo sapiens (Homo sapiens) (UniProt P05362); assay: cell-based or functional assay
Sequence of intercellular adhesion molecule 1 (ICAM1) from Homo sapiens (Homo sapiens) (P05362 28-532 limits assumed): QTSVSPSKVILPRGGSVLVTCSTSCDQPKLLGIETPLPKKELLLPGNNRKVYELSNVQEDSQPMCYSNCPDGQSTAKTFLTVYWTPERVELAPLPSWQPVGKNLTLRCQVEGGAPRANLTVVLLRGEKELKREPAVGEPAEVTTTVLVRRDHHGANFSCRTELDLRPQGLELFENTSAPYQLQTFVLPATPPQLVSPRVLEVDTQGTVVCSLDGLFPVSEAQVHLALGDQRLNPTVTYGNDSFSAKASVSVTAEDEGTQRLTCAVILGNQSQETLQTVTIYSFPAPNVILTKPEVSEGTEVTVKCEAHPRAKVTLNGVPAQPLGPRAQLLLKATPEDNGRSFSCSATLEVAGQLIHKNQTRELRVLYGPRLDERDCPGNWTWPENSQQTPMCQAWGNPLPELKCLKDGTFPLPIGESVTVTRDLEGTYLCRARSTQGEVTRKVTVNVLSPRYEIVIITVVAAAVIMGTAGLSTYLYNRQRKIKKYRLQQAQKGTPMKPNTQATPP

[3] = system: refractory TNBC; conditions: refractory TNBC patients; cited from earlier work
[4] = system: MDA-MB-231 cells; conditions: reported in literature; cited from earlier work

Molecule: COc1cccc2c1C(=O)c1c(O)c3c(c(O)c1C2=O)C[C@@](O)(C(=O)CO)C[C@@H]3O[C@H]1C[C@H](N)[C@H](O)[C@H](C)O1 [free Dox, Doxorubicin]
Anti-tumor efficacy [1]: very limited efficacy

cellular internalization rate in three TNBC cell lines relative to MCF10A cells (imaging flow cytometry) [2]: 42 to 109 fold
cellular internalization rate in three TNBC cell lines relative to non-targeting IgG (imaging flow cytometry) [2]: 21 to 129 fold
Molecule: Phycoerythrin (PE)-conjugated anti-human ICAM1 antibody (Clone: HCD54)

Molecule: sacituzumab govitecan
Median progression-free survival [3]: 5.5 months
Response rate [3]: ~33%
Resistance of MDA-MB-231 cells [4]: resistant
